For assay [1], the target named is Sodium-dependent dopamine transporter (Rattus norvegicus, UniProt P23977). The assay can be described thus: Inhibition of [3H]dopamine uptake at dopamine transporter expressed in rat striatal homogenate after 5 mins by scintillation counting analysis.
Another assay has as its target Transporter (Rattus norvegicus, UniProt Q63380). Put plainly: Inhibition of [3H]norepinephrine uptake at NET expressed in rat hypothalamic homogenate containing synaptosomes after 5 mins by scintillation counting analysis. It is filed as subcellular, Brain.
For assay [2], the target named is Sodium-dependent dopamine transporter (Rattus norvegicus) (UniProt P23977). The assay can be described thus: Inhibition of [3H]dopamine uptake at dopamine transporter expressed in rat striatal homogenate after 5 mins by scintillation counting analysis relative to (+)-amphetamine.
A further assay is filed under the species Rattus norvegicus. Put plainly: Inhibition of [3H]norepinephrine uptake at NET expressed in rat hypothalamic homogenate containing synaptosomes after 5 mins by scintillation counting analysis relative to (+)-amphetamine. It is filed as subcellular. As to conditions: Brain.

Molecules are shown by their SMILES.

Sodium-dependent dopamine transporter (Rattus norvegicus), sequence (P23977 whole entry): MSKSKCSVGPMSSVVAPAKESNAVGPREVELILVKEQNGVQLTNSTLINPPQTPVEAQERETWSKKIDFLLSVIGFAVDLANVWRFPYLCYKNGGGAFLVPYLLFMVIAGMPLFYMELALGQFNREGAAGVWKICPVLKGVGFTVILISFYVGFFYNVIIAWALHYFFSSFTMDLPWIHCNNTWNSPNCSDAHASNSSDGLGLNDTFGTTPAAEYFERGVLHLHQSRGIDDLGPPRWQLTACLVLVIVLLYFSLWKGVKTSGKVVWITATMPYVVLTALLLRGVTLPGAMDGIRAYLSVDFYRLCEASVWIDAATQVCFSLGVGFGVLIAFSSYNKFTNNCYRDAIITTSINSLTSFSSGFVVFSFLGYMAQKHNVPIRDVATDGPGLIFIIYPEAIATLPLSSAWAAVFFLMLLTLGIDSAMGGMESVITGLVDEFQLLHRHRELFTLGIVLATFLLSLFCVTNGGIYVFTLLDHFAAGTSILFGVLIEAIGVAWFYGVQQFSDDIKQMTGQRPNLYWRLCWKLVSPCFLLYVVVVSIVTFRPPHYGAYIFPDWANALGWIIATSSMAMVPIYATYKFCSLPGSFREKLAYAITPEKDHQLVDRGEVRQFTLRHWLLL
Sodium-dependent dopamine transporter, sequence (P23977 whole entry): as above
Transporter, sequence (Q63380 whole entry): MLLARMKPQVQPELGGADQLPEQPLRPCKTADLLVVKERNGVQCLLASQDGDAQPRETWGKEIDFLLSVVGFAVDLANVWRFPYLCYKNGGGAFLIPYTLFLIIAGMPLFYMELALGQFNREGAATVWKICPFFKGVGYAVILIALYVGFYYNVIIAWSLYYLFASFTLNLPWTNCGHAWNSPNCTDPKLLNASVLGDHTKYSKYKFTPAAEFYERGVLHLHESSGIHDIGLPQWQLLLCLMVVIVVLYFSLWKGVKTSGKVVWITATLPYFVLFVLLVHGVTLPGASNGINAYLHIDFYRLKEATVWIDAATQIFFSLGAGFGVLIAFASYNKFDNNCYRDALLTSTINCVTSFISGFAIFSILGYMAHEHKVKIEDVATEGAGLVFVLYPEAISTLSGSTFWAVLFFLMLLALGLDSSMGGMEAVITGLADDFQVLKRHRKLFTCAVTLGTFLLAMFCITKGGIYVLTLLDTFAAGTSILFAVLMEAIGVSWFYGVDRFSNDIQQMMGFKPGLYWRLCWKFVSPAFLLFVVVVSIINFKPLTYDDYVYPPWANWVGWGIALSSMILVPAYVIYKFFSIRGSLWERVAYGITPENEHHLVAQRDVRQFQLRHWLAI

Turning to `NC1C[C@@H]2CCCC[C@H]2CC1c1ccccc1` (mixture of isomers; 4) [listing 1 of 2 here], the IC50 in assay [1] came out at 7 µM; against Transporter, 5.5 µM.
Regarding `NC1C[C@@H]2CCCC[C@H]2CC1c1ccccc1` (mixture of isomers; 2) [listing 1 of 2 here], the fold change (FC) in assay [2] turned out to be 8; in the assay filed under Rattus norvegicus, 1.1.
For `NC1C[C@@H]2CCCC[C@H]2CC1c1ccccc1` (mixture of isomers; 1) [listing 1 of 2 here], the IC50 in assay [1] worked out at 3.8 µM; against Transporter, 0.66 µM.
As for `NC1C[C@@H]2CCCC[C@H]2CC1c1ccccc1` (mixture of isomers; 1) [listing 2 of 2 here], the fold change (FC) in assay [2] was 25; in the assay listed under Rattus norvegicus it was 30.
For `NC1C[C@@H]2CCCC[C@H]2CC1c1ccccc1` (mixture of isomers; 3) [listing 1 of 2 here] the same measures were 4.8 and 2.2.
As for `NC1C[C@@H]2CCCC[C@H]2CC1c1ccccc1` (mixture of isomers; 2) [listing 2 of 2 here], the IC50 is 12 µM in assay [1] and 18 µM against Transporter.
For the compound `NC1C[C@@H]2CCCC[C@H]2CC1(O)c1ccc(O)c(O)c1` (mixture of isomers; form 2), the fold change (FC) in assay [2] came out at 50; in the assay filed under Rattus norvegicus, 8.9.
Taken in the same sequence, the figures for `NC1C[C@@H]2CCCC[C@H]2CC1(O)c1ccc(O)c(O)c1` (mixture of isomers; form 4) were 5.7 and 2.
Take `NC[C@H](O)c1ccc(O)c(O)c1`: the fold change (FC) (in assay [2]; in the assay listed under Rattus norvegicus) was 100 in each case.
Consider `NC1C[C@@H]2CCCC[C@H]2CC1(O)c1ccc(O)c(O)c1` (mixture of isomers; form 3), for which the results for the fold change (FC) (in assay [2]; in the assay listed under Rattus norvegicus) were 1.1 and 0.03, respectively.
For `NC1C[C@@H]2CCCC[C@H]2CC1(O)c1ccc(O)c(O)c1` (mixture of isomers; form 1) the same measures were 2.3 and 4.4.
`NC1C[C@@H]2CCCC[C@H]2CC1c1ccccc1` (mixture of isomers; 3) [listing 2 of 2 here]: the IC50 in assay [1] worked out at 20 µM; against Transporter, 9 µM.
For `NC1C[C@@H]2CCCC[C@H]2CC1c1ccccc1` (mixture of isomers; 4) [listing 2 of 2 here], the results for the fold change (FC) (in assay [2]; in the assay listed under Rattus norvegicus) were 14 and 3.6, respectively.
